Laboratory results reported in the NIST ThermoML archive (doi:10.1021/je700294p).

What was measured:
[1] = refractive index (Na D-line) (dimensionless); details: 101.33 kPa, Liquid, Standard Abbe refractometry
[2] = 101.33 kPa, Liquid, Vibrating tube method
[3] = xn = mol fraction of the nth substance listed; details: 101 kPa, Liquid
[4] = excess molar enthalpy (molar enthalpy of mixing); xn = mol fraction of the nth substance listed; details: 101 kPa, Liquid

CCCO [propan-1-ol]
Details | mass density, [2] [kg/m3] | refractive index, [1]
298.15 K | 799.7 | 1.3831
318.15 K | 783.16 | 1.3757

CO [methanol]
Details | mass density, [2] [kg/m3] | refractive index, [1]
298.15 K | 786.44 | 1.3268
318.15 K | 768.04 | 1.319

CCCC[n+]1cccc(C)c1.F[B-](F)(F)F [1-butyl-3-methylpyridinium tetrafluoroborate] + CO
Details | excess molar enthalpy [kcal/mol] | mass density [kg/m3]
[3], 298.15 K, x1 = 0.0493 | – | 873.4
[3], 298.15 K, x1 = 0.0629 | – | 893.1
[3], 298.15 K, x1 = 0.0986 | – | 934.4
[3], 298.15 K, x1 = 0.1499 | – | 979.6
[3], 298.15 K, x1 = 0.2007 | – | 1014.7
[3], 298.15 K, x1 = 0.2956 | – | 1061.6
[3], 298.15 K, x1 = 0.4052 | – | 1098.2
[3], 298.15 K, x1 = 0.5128 | – | 1122.8
[3], 298.15 K, x1 = 0.6009 | – | 1138.7
[3], 298.15 K, x1 = 0.6913 | – | 1151.7
[3], 298.15 K, x1 = 0.7611 | – | 1159.7
[3], 318.15 K, x1 = 0.0557 | – | 865.7
[3], 318.15 K, x1 = 0.1052 | – | 924.3
[3], 318.15 K, x1 = 0.1493 | – | 964
[3], 318.15 K, x1 = 0.2479 | – | 1025.1
[3], 318.15 K, x1 = 0.3016 | – | 1048.4
[3], 318.15 K, x1 = 0.3944 | – | 1079.5
[3], 318.15 K, x1 = 0.497 | – | 1104.7
[3], 318.15 K, x1 = 0.5868 | – | 1121.6
[3], 318.15 K, x1 = 0.7088 | – | 1139.8
[3], 318.15 K, x1 = 0.855 | – | 1156.2
[3], 318.15 K, x1 = 0.9465 | – | 1164.4
[4], 298.15 K, x1 = 0.0057 | 0.0261 | –
[4], 298.15 K, x1 = 0.0149 | 0.0545 | –
[4], 298.15 K, x1 = 0.0279 | 0.0923 | –
[4], 298.15 K, x1 = 0.044 | 0.13 | –
[4], 298.15 K, x1 = 0.0635 | 0.167 | –
[4], 298.15 K, x1 = 0.0842 | 0.202 | –
[4], 298.15 K, x1 = 0.1071 | 0.237 | –
[4], 298.15 K, x1 = 0.1312 | 0.271 | –
[4], 298.15 K, x1 = 0.1585 | 0.308 | –
[4], 298.15 K, x1 = 0.1851 | 0.332 | –
[4], 298.15 K, x1 = 0.2119 | 0.359 | –
[4], 298.15 K, x1 = 0.2357 | 0.373 | –
[4], 298.15 K, x1 = 0.2672 | 0.382 | –
[4], 298.15 K, x1 = 0.3069 | 0.386 | –
[4], 298.15 K, x1 = 0.3541 | 0.383 | –
[4], 298.15 K, x1 = 0.41 | 0.377 | –
[4], 298.15 K, x1 = 0.4816 | 0.361 | –
[4], 298.15 K, x1 = 0.5621 | 0.33 | –
[4], 298.15 K, x1 = 0.7167 | 0.257 | –
[4], 298.15 K, x1 = 0.7441 | 0.227 | –
[4], 298.15 K, x1 = 0.8438 | 0.158 | –
[4], 298.15 K, x1 = 0.9196 | 0.0942 | –
[4], 298.15 K, x1 = 0.9707 | 0.0416 | –
[4], 318.15 K, x1 = 0.0159 | 0.0588 | –
[4], 318.15 K, x1 = 0.0352 | 0.121 | –
[4], 318.15 K, x1 = 0.0581 | 0.173 | –
[4], 318.15 K, x1 = 0.0823 | 0.224 | –
[4], 318.15 K, x1 = 0.1098 | 0.281 | –
[4], 318.15 K, x1 = 0.1382 | 0.336 | –
[4], 318.15 K, x1 = 0.1674 | 0.39 | –
[4], 318.15 K, x1 = 0.197 | 0.43 | –
[4], 318.15 K, x1 = 0.2147 | 0.462 | –
[4], 318.15 K, x1 = 0.2317 | 0.488 | –
[4], 318.15 K, x1 = 0.2641 | 0.512 | –
[4], 318.15 K, x1 = 0.2984 | 0.533 | –
[4], 318.15 K, x1 = 0.3343 | 0.544 | –
[4], 318.15 K, x1 = 0.3787 | 0.548 | –
[4], 318.15 K, x1 = 0.4391 | 0.538 | –
[4], 318.15 K, x1 = 0.5504 | 0.477 | –
[4], 318.15 K, x1 = 0.6911 | 0.349 | –
[4], 318.15 K, x1 = 0.8526 | 0.191 | –

CCCC[n+]1cccc(C)c1.F[B-](F)(F)F [1-butyl-3-methylpyridinium tetrafluoroborate] + CCCO
Details | excess molar enthalpy [kcal/mol] | mass density [kg/m3]
[3], 298.15 K, x1 = 0.016 | – | 816.7
[3], 298.15 K, x1 = 0.4528 | – | 1066.5
[3], 298.15 K, x1 = 0.494 | – | 1079.3
[3], 298.15 K, x1 = 0.5262 | – | 1088.6
[3], 298.15 K, x1 = 0.5959 | – | 1106.9
[3], 298.15 K, x1 = 0.6934 | – | 1129.5
[3], 298.15 K, x1 = 0.7543 | – | 1141.9
[3], 298.15 K, x1 = 0.7993 | – | 1150.4
[3], 298.15 K, x1 = 0.8582 | – | 1160.4
[3], 298.15 K, x1 = 0.8962 | – | 1166.6
[3], 318.15 K, x1 = 0.0143 | – | 798.4
[3], 318.15 K, x1 = 0.0249 | – | 808.8
[3], 318.15 K, x1 = 0.0477 | – | 830.6
[3], 318.15 K, x1 = 0.1003 | – | 873.4
[3], 318.15 K, x1 = 0.1222 | – | 890.6
[3], 318.15 K, x1 = 0.1492 | – | 909.3
[3], 318.15 K, x1 = 0.2 | – | 940.8
[3], 318.15 K, x1 = 0.2295 | – | 957.5
[3], 318.15 K, x1 = 0.3112 | – | 997.8
[3], 318.15 K, x1 = 0.4002 | – | 1033.6
[3], 318.15 K, x1 = 0.4285 | – | 1043.6
[3], 318.15 K, x1 = 0.4635 | – | 1055.3
[3], 318.15 K, x1 = 0.5638 | – | 1084.7
[3], 318.15 K, x1 = 0.6072 | – | 1095.8
[3], 318.15 K, x1 = 0.6405 | – | 1103.5
[3], 318.15 K, x1 = 0.7096 | – | 1118.9
[3], 318.15 K, x1 = 0.8001 | – | 1136.9
[3], 318.15 K, x1 = 0.8522 | – | 1145.7
[3], 318.15 K, x1 = 0.9028 | – | 1154.2
[4], 298.15 K, x1 = 0.0139 | 0.039 | –
[4], 298.15 K, x1 = 0.0242 | 0.0564 | –
[4], 298.15 K, x1 = 0.0278 | 0.0681 | –
[4], 298.15 K, x1 = 0.3397 | 0.56 | –
[4], 298.15 K, x1 = 0.3707 | 0.56 | –
[4], 298.15 K, x1 = 0.4045 | 0.552 | –
[4], 298.15 K, x1 = 0.4278 | 0.544 | –
[4], 298.15 K, x1 = 0.4642 | 0.531 | –
[4], 298.15 K, x1 = 0.498 | 0.506 | –
[4], 298.15 K, x1 = 0.5458 | 0.47 | –
[4], 298.15 K, x1 = 0.5983 | 0.416 | –
[4], 298.15 K, x1 = 0.6621 | 0.364 | –
[4], 298.15 K, x1 = 0.7278 | 0.298 | –
[4], 298.15 K, x1 = 0.7939 | 0.229 | –
[4], 298.15 K, x1 = 0.8653 | 0.164 | –
[4], 298.15 K, x1 = 0.9335 | 0.0973 | –
[4], 318.15 K, x1 = 0.0232 | 0.0997 | –
[4], 318.15 K, x1 = 0.052 | 0.185 | –
[4], 318.15 K, x1 = 0.0852 | 0.276 | –
[4], 318.15 K, x1 = 0.1233 | 0.371 | –
[4], 318.15 K, x1 = 0.1608 | 0.46 | –
[4], 318.15 K, x1 = 0.2011 | 0.534 | –
[4], 318.15 K, x1 = 0.2044 | 0.552 | –
[4], 318.15 K, x1 = 0.2311 | 0.583 | –
[4], 318.15 K, x1 = 0.2591 | 0.611 | –
[4], 318.15 K, x1 = 0.2896 | 0.634 | –
[4], 318.15 K, x1 = 0.3223 | 0.652 | –
[4], 318.15 K, x1 = 0.3585 | 0.663 | –
[4], 318.15 K, x1 = 0.3982 | 0.664 | –
[4], 318.15 K, x1 = 0.4404 | 0.655 | –
[4], 318.15 K, x1 = 0.4891 | 0.634 | –
[4], 318.15 K, x1 = 0.5441 | 0.598 | –
[4], 318.15 K, x1 = 0.6073 | 0.537 | –
[4], 318.15 K, x1 = 0.674 | 0.457 | –
[4], 318.15 K, x1 = 0.7504 | 0.361 | –
[4], 318.15 K, x1 = 0.8323 | 0.252 | –
[4], 318.15 K, x1 = 0.9131 | 0.143 | –
